ChEMBL document CHEMBL1201862, “PubChem BioAssay data set” (2004)
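Following 48 hours of exposure in 96-well plates, responses at five concentrations were used to interpolate endpoints linearly. GI50 = concentration required for 50% inhibition of growth.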 Active and inactive are the calls of the source. Rule as the data show it: active = GI50 up to about 1.1 µM and inactive = higher.

Key:
Assay in all cases: NCI-60 cell line screen, 48 h
Malme-3M = tested on: Malme-3M
U-251 = tested on: U-251
CAKI-1 = tested on: CAKI-1
OVCAR-8 = tested on: OVCAR-8
COLO 205 = tested on: COLO 205
NCI-H226 = tested on: NCI-H226
Hs-578T = tested on: Hs-578T
BT-549 = tested on: BT-549
HT-29 = tested on: HT-29
786-0 = tested on: 786-0
A498 = tested on: A498
KM12 = tested on: KM12
M14 = tested on: M14
SF-539 = tested on: SF-539
MDA-MB-435 = tested on: MDA-MB-435
LOX IMVI = tested on: LOX IMVI
DU-145 = tested on: DU-145
SW-620 = tested on: SW-620
IGROV-1 = tested on: IGROV-1
SK-MEL-28 = tested on: SK-MEL-28
SF-268 = tested on: SF-268
RPMI-8226 = tested on: RPMI-8226
EKVX = tested on: EKVX
OVCAR-3 = tested on: OVCAR-3
UO-31 = tested on: UO-31
MCF7 = tested on: MCF7
HCC 2998 = tested on: HCC 2998
SF-295 = tested on: SF-295
HCT-15 = tested on: HCT-15
T47D = tested on: T47D
SNB-19 = tested on: SNB-19
SK-MEL-2 = tested on: SK-MEL-2
SR = tested on: SR
HOP-62 = tested on: HOP-62
HOP-92 = tested on: HOP-92
OVCAR-4 = tested on: OVCAR-4
HCT-116 = tested on: HCT-116
RXF 393 = tested on: RXF 393
A549 = tested on: A549
SK-MEL-5 = tested on: SK-MEL-5
MDA-MB-231 = tested on: MDA-MB-231
K562 = tested on: K562
MDA-N = tested on: MDA-N
ACHN = tested on: ACHN
UACC-62 = tested on: UACC-62
NCI/ADR-RES = tested on: NCI/ADR-RES
CCRF-CEM = tested on: CCRF-CEM
SK-OV-3 = tested on: SK-OV-3
UACC-257 = tested on: UACC-257
NCI-H460 = tested on: NCI-H460
OVCAR-5 = tested on: OVCAR-5
NCI-H23 = tested on: NCI-H23
PC-3 = tested on: PC-3
NCI-H522 = tested on: NCI-H522
MOLT-4 = tested on: MOLT-4
SNB-75 = tested on: SNB-75
TK-10 = tested on: TK-10
HL-60 = tested on: HL-60
SN12C = tested on: SN12C

Measured: GI50

CCOC(=O)c1c(Nc2ccccc2)sc2cccnc12
active: COLO 205 0.853 µM
inactive: Malme-3M 30.3 µM | U-251 2.43 µM | CAKI-1 37.2 µM | OVCAR-8 25.1 µM | NCI-H226 5.68 µM | Hs-578T 35.3 µM | BT-549 18.7 µM | HT-29 5.48 µM | 786-0 11.6 µM | A498 3.56 µM | KM12 18.9 µM | M14 4.49 µM | SF-539 1.43 µM | MDA-MB-435 22.6 µM | LOX IMVI 18.2 µM | DU-145 28.7 µM | SW-620 24 µM | IGROV-1 23 µM | SK-MEL-28 20.8 µM | SF-268 29.9 µM | RPMI-8226 2.05 µM | EKVX 18.5 µM | OVCAR-3 17.4 µM | UO-31 1.94 µM | MCF7 7.76 µM | HCC 2998 3.24 µM | SF-295 21.4 µM | T47D 28 µM | SNB-19 7.66 µM | SK-MEL-2 17.7 µM | SR 9.44 µM | HOP-62 35.5 µM | HOP-92 1.9 µM | OVCAR-4 23.3 µM | HCT-116 5.92 µM | RXF 393 25.7 µM | A549 3.24 µM | SK-MEL-5 3.56 µM | MDA-MB-231 6.56 µM | K562 8.36 µM | MDA-N 6.73 µM | ACHN 14.2 µM | UACC-62 11.9 µM | NCI/ADR-RES 21.9 µM | CCRF-CEM 10.5 µM | SK-OV-3 36 µM | UACC-257 5.35 µM | NCI-H460 2.25 µM | OVCAR-5 12.4 µM | NCI-H23 30.3 µM | PC-3 11.1 µM | NCI-H522 21 µM | MOLT-4 15.6 µM | SNB-75 19.9 µM | TK-10 11.2 µM | HL-60 15.1 µM | SN12C 9.18 µM
21.7 µM: HCT-15
